Data taken from ChEMBL document CHEMBL1201862, “PubChem BioAssay data set” (2004).
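Cultured in 96-well plates, cells were exposed to test compound for 48 hours across five concentrations. GI50: concentration for 50% inhibition of growth.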 Calls of active or inactive are those of the source. Cut-off read from the data, not from the text of the source: active = GI50 up to about 1.1 µM and inactive = higher.

Legend:
Assay in all cases: inhibition of tumour cell growth, NCI panel, 48 h
T47D = tested on: T47D
M14 = tested on: M14
SF-268 = tested on: SF-268
IGROV-1 = tested on: IGROV-1
BT-549 = tested on: BT-549
786-0 = tested on: 786-0
SK-MEL-28 = tested on: SK-MEL-28
SF-539 = tested on: SF-539
CCRF-CEM = tested on: CCRF-CEM
SK-MEL-5 = tested on: SK-MEL-5
PC-3 = tested on: PC-3
NCI-H226 = tested on: NCI-H226
KM12 = tested on: KM12
HCT-116 = tested on: HCT-116
TK-10 = tested on: TK-10
NCI-H23 = tested on: NCI-H23
RPMI-8226 = tested on: RPMI-8226
SNB-75 = tested on: SNB-75
SR = tested on: SR
HCT-15 = tested on: HCT-15

Ic1cccc(/C=C/CN2CCN(CCOC(c3ccccc3)c3ccccc3)CC2)c1
GI50 (T47D): 10.6 µM (inactive)
GI50 (M14): 14.6 µM (inactive)
GI50 (SF-268): 27.2 µM (inactive)
GI50 (IGROV-1): 19.7 µM (inactive)
GI50 (BT-549): 16.8 µM (inactive)
GI50 (786-0): 15.7 µM (inactive)
GI50 (SK-MEL-28): 20.8 µM (inactive)
GI50 (SF-539): 17.3 µM (inactive)
GI50 (CCRF-CEM): 6.5 µM (inactive)
GI50 (SK-MEL-5): 14.3 µM (inactive)
GI50 (PC-3): 17.5 µM (inactive)
GI50 (NCI-H226): 17.1 µM (inactive)
GI50 (KM12): 14.9 µM (inactive)
GI50 (HCT-116): 12.6 µM (inactive)
GI50 (TK-10): 16.1 µM (inactive)
GI50 (NCI-H23): 16.2 µM (inactive)
GI50 (RPMI-8226): 3.01 µM (inactive)
GI50 (SNB-75): 11.5 µM (inactive)
GI50 (SR): 4.16 µM (inactive)
GI50 (HCT-15): 14.2 µM

S=C(S)NCCN1CCNCC1
GI50 (T47D): 10.7 µM (inactive)
GI50 (M14): 31.2 µM (inactive)
GI50 (SF-268): 99.3 µM (inactive)
GI50 (IGROV-1): 49.5 µM (inactive)
GI50 (BT-549): 88.1 µM (inactive)
GI50 (786-0): 22.3 µM (inactive)
GI50 (SK-MEL-28): > 100 µM (inactive)
GI50 (CCRF-CEM): 21.1 µM (inactive)
GI50 (SK-MEL-5): 52.1 µM (inactive)
GI50 (PC-3): 34.3 µM (inactive)
GI50 (NCI-H226): > 100 µM (inactive)
GI50 (KM12): > 100 µM (inactive)
GI50 (HCT-116): 27.9 µM (inactive)
GI50 (TK-10): 20.8 µM (inactive)
GI50 (NCI-H23): > 100 µM (inactive)
GI50 (RPMI-8226): 18.6 µM (inactive)
GI50 (SNB-75): > 100 µM (inactive)
GI50 (SR): 24.5 µM (inactive)
GI50 (HCT-15): 47.8 µM

COc1cc2c3c(cc(Cl)nc3c1OC)C(O)(CC(C)=O)C(=O)N2 (stereo unspecified)
GI50 (T47D): 3.2 µM (inactive)
GI50 (M14): 18.9 µM (inactive)
GI50 (SF-268): 6.07 µM (inactive)
GI50 (IGROV-1): 19.1 µM (inactive)
GI50 (BT-549): 16.8 µM (inactive)
GI50 (786-0): 17.1 µM (inactive)
GI50 (SK-MEL-28): > 45.4 µM (inactive)
GI50 (SF-539): > 100 µM (inactive)
GI50 (CCRF-CEM): 9.18 µM (inactive)
GI50 (SK-MEL-5): > 41 µM (inactive)
GI50 (PC-3): 25.1 µM (inactive)
GI50 (NCI-H226): > 42.3 µM (inactive)
GI50 (KM12): > 45.5 µM (inactive)
GI50 (HCT-116): 17.3 µM (inactive)
GI50 (TK-10): 20.2 µM (inactive)
GI50 (NCI-H23): 30.7 µM (inactive)
GI50 (RPMI-8226): 23.8 µM (inactive)
GI50 (SNB-75): 38.6 µM (inactive)
GI50 (SR): 19.3 µM (inactive)
GI50 (HCT-15): > 43.4 µM

CNC(=S)NN=C1NCCCCN1
GI50 (T47D): > 100 µM (inactive)
GI50 (M14): > 100 µM (inactive)
GI50 (SF-268): > 100 µM (inactive)
GI50 (IGROV-1): > 100 µM (inactive)
GI50 (BT-549): > 100 µM (inactive)
GI50 (786-0): > 100 µM (inactive)
GI50 (SK-MEL-28): > 100 µM (inactive)
GI50 (SF-539): > 100 µM (inactive)
GI50 (CCRF-CEM): > 100 µM (inactive)
GI50 (SK-MEL-5): > 100 µM (inactive)
GI50 (PC-3): > 100 µM (inactive)
GI50 (NCI-H226): > 100 µM (inactive)
GI50 (KM12): > 100 µM (inactive)
GI50 (HCT-116): > 100 µM (inactive)
GI50 (TK-10): > 100 µM (inactive)
GI50 (NCI-H23): > 100 µM (inactive)
GI50 (RPMI-8226): > 100 µM (inactive)
GI50 (SNB-75): > 100 µM (inactive)
GI50 (SR): > 100 µM (inactive)
GI50 (HCT-15): > 100 µM

Cc1cc2c(cc1-c1cc3c(cc1C)C(C(C)C)=C(O)C(=O)/C3=C\Nc1c3ccccc3nc3ccccc13)/C(=C/Nc1c3ccccc3nc3ccccc13)C(=O)C(O)=C2C(C)C
GI50 (T47D): 6.17 µM (inactive)
GI50 (M14): 2.67 µM (inactive)
GI50 (SF-268): 3.36 µM (inactive)
GI50 (IGROV-1): 2.64 µM (inactive)
GI50 (BT-549): 5.85 µM (inactive)
GI50 (786-0): 2.72 µM (inactive)
GI50 (SK-MEL-28): 7.03 µM (inactive)
GI50 (SF-539): 3.86 µM (inactive)
GI50 (CCRF-CEM): 3.51 µM (inactive)
GI50 (SK-MEL-5): 3.99 µM (inactive)
GI50 (PC-3): 3.25 µM (inactive)
GI50 (NCI-H226): 1.26 µM (inactive)
GI50 (KM12): 3.09 µM (inactive)
GI50 (HCT-116): 6.25 µM (inactive)
GI50 (NCI-H23): 3.66 µM (inactive)
GI50 (RPMI-8226): 4.52 µM (inactive)
GI50 (SNB-75): 2.32 µM (inactive)
GI50 (SR): 3.91 µM (inactive)
GI50 (HCT-15): 3.85 µM

COc1ccc(C2=C3SC=c4ccccc4=C3ON=C2c2ccccc2)cc1
GI50 (T47D): 25.4 µM (inactive)
GI50 (M14): > 100 µM (inactive)
GI50 (SF-268): > 100 µM (inactive)
GI50 (IGROV-1): > 100 µM (inactive)
GI50 (BT-549): > 100 µM (inactive)
GI50 (786-0): > 100 µM (inactive)
GI50 (SK-MEL-28): > 100 µM (inactive)
GI50 (SF-539): > 100 µM (inactive)
GI50 (CCRF-CEM): 84.3 µM (inactive)
GI50 (SK-MEL-5): > 100 µM (inactive)
GI50 (PC-3): > 100 µM (inactive)
GI50 (NCI-H226): > 100 µM (inactive)
GI50 (KM12): > 100 µM (inactive)
GI50 (HCT-116): 57.4 µM (inactive)
GI50 (TK-10): > 100 µM (inactive)
GI50 (NCI-H23): > 100 µM (inactive)
GI50 (RPMI-8226): 69.2 µM (inactive)
GI50 (SR): 42 µM (inactive)
GI50 (HCT-15): > 100 µM

CC1(C)OC2C(O)C(CO)OC2(C(F)F)O1 (stereo unspecified)
GI50 (T47D): > 100 µM (inactive)
GI50 (M14): > 100 µM (inactive)
GI50 (SF-268): > 100 µM (inactive)
GI50 (IGROV-1): > 100 µM (inactive)
GI50 (BT-549): > 100 µM (inactive)
GI50 (786-0): > 100 µM (inactive)
GI50 (SK-MEL-28): > 100 µM (inactive)
GI50 (SF-539): > 100 µM (inactive)
GI50 (CCRF-CEM): > 100 µM (inactive)
GI50 (SK-MEL-5): > 85.3 µM (inactive)
GI50 (PC-3): > 100 µM (inactive)
GI50 (NCI-H226): > 100 µM (inactive)
GI50 (KM12): > 100 µM (inactive)
GI50 (HCT-116): > 100 µM (inactive)
GI50 (TK-10): > 100 µM (inactive)
GI50 (RPMI-8226): > 100 µM (inactive)
GI50 (SNB-75): > 100 µM (inactive)
GI50 (SR): > 100 µM (inactive)
GI50 (HCT-15): > 100 µM
